# Test results: US5877165A, “Boronated porhyrins and methods for their use” (priority 1997, dated 1999)
# Several values for one entry are separate records, joined by “and”; a condition that tells them apart may be missing. Identical values can stand only once.
# How the values were obtained:
# [1] = cited from earlier work
# [2] = Hematological, enzymatic and chemical blood analyses and weight change, mice with KHJJ mammary carcinomas (Examples 4-7, Table 1); assay type: in vivo, BALB/c mice; settings: NiTCP 160 or BPA 900 μg/gbw; 6-78 hr
# Procedure: Female BALB/c mice (Taconic Farms, Germantown, N.Y.) (20-25 g) were implanted with either KHJJ or EMT-6 tumors. For KHJJ tumors, 1-3 mm^3 tumor fragments were implanted subcutaneously (s.c.) in the dorsal thorax of each mouse using an 18-gauge trocar. For EMT-6 tumors, 2.5×10^5 cells were implanted similarly using a 27-gauge needle. EMT-6 tumor cells were grown alternately in vivo and in vitro. Single-cell suspensions were prepared from mouse-grown tumors by trypsinization. These were grown in cell culture for several passages and then were frozen in 10% DMSO and stored in liquid nitrogen. Prior to implantation in mice, the cells were thawed and grown in tissue culture in Alpha-MEM with 10% FBS for several passages. […]
# Levels of glucose [GLU], blood urea nitrogen [BUN], blood creatinine [BCR], alanine transaminase [ALT], aspartate transaminase [AST], alkaline phosphatase [ALP], total protein [TPR], albumin [ALB], and creatine phosphokinase [CPK] were determined in blood plasma using a Cobas Fara II microanalysis system. Blood platelets [PLT] and white blood cells [WBC] were counted using a Serono-Baker System 9000 automated hematology microanalyzer. […]
# KHJJ mammary carcinomas = experiment: Boron biodistribution, mice with KHJJ mammary carcinomas (Examples 4-7, Table 1); assay type: in vivo, BALB/c mice; settings: 6 hr after last i.p. injection; BPA 900 or NiTCP 160 μg/gbw; median (range); 900 mg/kg, 360 min
# Procedure: (§1) Female BALB/c mice (Taconic Farms, Germantown, N.Y.) (20-25 g) were implanted with either KHJJ or EMT-6 tumors. For KHJJ tumors, 1-3 mm^3 tumor fragments were implanted subcutaneously (s.c.) in the dorsal thorax of each mouse using an 18-gauge trocar. For EMT-6 tumors, 2.5×10^5 cells were implanted similarly using a 27-gauge needle. EMT-6 tumor cells were grown alternately in vivo and in vitro. Single-cell suspensions were prepared from mouse-grown tumors by trypsinization. These were grown in cell culture for several passages and then were frozen in 10% DMSO and stored in liquid nitrogen. Prior to implantation in mice, the cells were thawed and grown in tissue culture in Alpha-MEM with 10% FBS for several passages.
# (§2) Under deep halothane anesthesia leading to euthanasia, right ventricular blood was collected in Microtainer (Becton-Dickinson, Rutherford, N.J.) tubes containing EDTA for hematological analyses and boron assays of whole blood and in Microtainer™ tubes containing lithium heparin for chemical analyses and enzyme assays of blood plasma. Tumor, brain, fat, muscle, and liver tissues were sampled at necropsy for boron analyses.
# (§3) Direct current plasma-atomic emission spectroscopy [DCP-AES] (ARL/Fisons Model SS-7) was used (detection limit: 0.1 μg/ml). Samples (50-130 mg) were digested at 60° C. with sulfuric acid:nitric acid (1:1). Triton X-100 and water were added to give final concentrations of ≈50 mg tissue/ml, 15% total acid v/v and 5% Triton X-100 v/v. Fat and liver tissues were assayed for ^10 B by prompt-gamma spectroscopy (Fairchild, et al., 1986). The prompt-gamma measurements were multiplied by 5.0 to give the total boron concentrations due to the use of boron of natural isotope abundance in the syntheses of all boronated porphyrins reported.
# (§4) Seven mice having KHJJ mammary carcinomas were given one intraperitoneal (i.p.) injection of 900 μg/g body weight of the boron compound presently used for BNCT of malignant brain tumors, p-boronophenylalanine (BPA) complexed with fructose. BPA was prepared in accordance with procedure described in Coderre, et al., 1996 incorporated herein by reference in its entirety as if set forth in full.
# (§5) Mice were euthanized during the collection of blood while under Halothane anesthesia. At necropsy, the apparent states of structural integrity, consistency, color or abnormality, if any, of tissues were observed and tumor, brain and liver tissues were collected from each mouse for boron analysis.
# (§6) Eight mice having KHJJ mammary carcinomas were injected with the NiTCP solution in the amount of 160 μg NiTCP/g body weight (36 μgB/g body weight) in six i.p. injections over 20 hours.
# (§7) Six hours after the mice were last injected with NiTCP, mice were euthanized during the collection of blood while under Halothane anesthesia and right ventricular blood was collected from each mouse for hematological and chemical analysis without pooling the samples. At necropsy, the apparent states of structural integrity, consistency, color, or abnormality, if any, of tissues were observed and tumor, brain and liver tissues were collected from each mouse for boron analysis without pooling the samples.
# (§8) Seven mice having KHJJ mammary carcinomas were injected with the NiTCP solution in the amount of 160 μg NiTCP/g body weight (36 μgB/g body weight) in six i.p. injections over 20 hours.
# (§9) Sixteen hours after the mice were injected with NiTCP, mice were euthanized during the collection of blood while under Halothane anesthesia and right ventricular blood was collected from each mouse for hematological and chemical analysis without pooling the samples. At necropsy, the apparent states of structural integrity, consistency, color, or abnormality, if any, of tissues were observed and tumor, brain and liver tissues were collected from each mouse for boron analysis. […]
# [3] = as above; assay type: in vivo, BALB/c mice; settings: mouse, ip, 900 mg/kg, 6 hr after last i.p. injection, BPA 900 or NiTCP 160 μg/gbw, median (range)
# Procedure: as §1, §2, §3, §4, §5, §6, §7, §8, §9
# [4] = Experiment IV: boron concentrations in tissues, mice bearing EMT-6 tumors (Table 10); assay type: in vivo, BALB/c mice; settings: mouse, ip, 837 mg/kg, BPA fructose complex, 6 hr, tumor model not restated
# Procedure: (§10) Lipophilic porphyrins 1, 2, 4, 5, and 6 were injected as emulsions in either 3% or 9% CRM and either 6% or 18% PRG with saline as previously described in Example 2 above. Water soluble porphyrins 3 and 7 were dissolved in saline. BPA was solubilized as a fructose complex.
# (§11) Female BALB/c mice (from Taconic Farms, Germantown, N.Y.) (20-25 g) were implanted with either KHJJ or EMT-6 tumors according to the procedure described in Example 3A above.
# as §2
# (§12) In Experiment IV, samples of BPA (836 μg/gbw), CuTCP (160 μg/gbw) and a combination of both were tested in mice with EMT-6 tumors. BPA was given in a single i.p. injection and mice were euthanized 6 hours later. CuTCP was given in 5 i.p. injections over 28 hours and mice were euthanized 90 hrs after the last injection. The group receiving both CuTCP and BPA were injected with CuTCP five times over 28 hours as was the CuTCP-only group and then with a single i.p. injection of BPA 6 hours prior to euthanasia which was 90 hours after the last injection of CuTCP.
# (§13) Hematological, chemical and enzymatic tests were carried out as described in Example 3 above. Nonparametric statistical analyses were carried out using the Wilcoxon Two-Sample Test in accordance with procedures described in Slatkin, D.N., 1995. Boron analyses were conducted in accordance with the procedure described in Example 3 above. Fat and liver tissues were assayed for ^10 B by prompt-gamma spectroscopy as described in Fairchild, et al., 1986. These measurements were multiplied by 5.0 to give total boron concentrations due to the use of boron of natural isotope abundance in the syntheses of all boronated porphyrins reported.
# EMT-6 tumors [5] = experiment: as above; assay type: in vivo, BALB/c mice; settings: 90 hrs after last of 5 ip CuTCP (160 μg/gbw); BPA (837 μg/gbw) 1 ip 6 hr before euthanasia; 836 mg/kg
# Procedure: as §10, §11, §2, §12, §13
# EMT-6 mammary tumors = experiment: Experiment II: boron concentrations in tissues, mice bearing EMT-6 tumors (Table 9); assay type: in vivo, BALB/c mice; settings: 90 hrs after last ip injection; NiDPE 78 (6 ip), VCDP 245 μg/gbw (12 ip)
# Procedure: as §10, §11, §2, §13
# [6] = Overall ranking of boronated porphyrins for BNCT guided by biodistribution and toxicity tests in mice (Table 11); settings: rank; higher numerical value = better performance
# Procedure: The higher the numerical value, the better the performance of that porphyrin for that property. […] Although VCDP was able to deliver therapeutic amounts of boron to tumor, such side effects such as thrombocytopenia, which was induced within 3 hours after injections, weight loss, and the altered hepatic enzymes were serious enough to rank VCDP considerably behind the TCP's and the TCP-H's (Miura et al., 1992). In addition, the 80-hour drug administration period and the 90-hour blood clearance period are of great inconvenience. Moreover, this 4-day difference between the VCDP and the TCP (or TCP-H) dose and clearance schedules would translate into a 4-day greater delay between initiation of drug administration and neutron irradiation which would allow greater tumor growth to occur.
# […]
# […]
# EMT-6 tumors [7] = experiment: Boron concentrations arithmetically normalized to constant dose, mice bearing EMT-6 tumors (FIG. 3); assay type: in vivo, BALB/c mice; settings: normalized porphyrin dose (160 μg porphyrin/gbw)
# Procedure: Since the porphyrins were not given at the same dose, the boron concentrations in tumor, blood, and brain were arithmetically normalized to a total dose of 160 μg porphyrin/gbw for comparison in FIG. 3. Since each porphyrin has a different percentage of boron per unit mass, tumor boron concentrations were also arithmetically normalized to a total dose of 36.5 μg B/gbw, also shown in FIG. 3.
# [8] = clinical BNCT (Coderre, et al., 1997)
compound,measurement,setting,value
"N[C@@H](Cc1ccc(B(O)O)cc1)C(=O)O [BPA, p-boronophenylalanine]",brain and blood boron concentrations relative to tumor,[1]; [8],approximately one-third that found in tumor
same,"chemical toxicity, in words",[1]; [8],not eliciting any chemical toxicity
same,"toxicity, in words",[2],"undetectable, minimal, or negligible in every respect"
same,Boron Concentration: Tumor,KHJJ mammary carcinomas,≈ 14 μg B/g
same,concentration at 6 h,"[3]; blood, read-out: Boron Concentration: Blood",4600 ng/g
same,concentration at 6 h,"[3]; brain, read-out: Boron Concentration: Brain",7200 ng/g
same,concentration at 6 h,"[3]; tumor, read-out: Boron Concentration: Tumor",13800 ng/g
same,concentration at 6 h,"[4]; blood, read-out: Blood boron",2000 ng/g
same,concentration at 6 h,"[4]; brain, read-out: Brain boron, median",8000 ng/g
same,"Boron concentration, Blood",EMT-6 tumors [5],2.0 (1.2-3.6) μg B/g
same,"Boron concentration, Brain",EMT-6 tumors [5],8.1 (5.9-9.6) μg B/g
same,"Boron concentration, Fat",EMT-6 tumors [5],0.4 (0-1.8) μg B/g
same,"Boron concentration, Liver",EMT-6 tumors [5],2.1 (0.1-3.1) μg B/g
same,"Boron concentration, Muscle",EMT-6 tumors [5],3.8 (2.1-7.9) μg B/g
same,"Boron concentration, Tumor",EMT-6 tumors [5],5.4 (3.5-23) μg B/g and 5.4 μg B/g
"3,8-divinyl-nido-carboranyldeuteroporphyrin [VCDP]","toxicity vs control, in words","[1]; 130 μg VCDP/gbw over 32 hr, 90 hrs after last injection (Miura et al., 1992)","no differences from control groups given a bicarbonate solution, although CPK was slightly depressed"
same,time to thrombocytopenia after injections,"[1]; Miura et al., 1992",≤ 3 h
same,dose per injection that keeps mortality below 10%,"[1]; per injection, mice",22 μg VCDP/gbw
same,"Boron concentration, Blood",EMT-6 mammary tumors,7 (4.3-13) μB/g
same,"Boron concentration, Brain",EMT-6 mammary tumors,8.1 (4.9-16.2) μB/g
same,"Boron concentration, Tumor",EMT-6 mammary tumors,53 (30-106) μB/g
same,Drug tolerance/deliverable boron (ranking),[6],2
same,Lipophilicity (ranking),[6],0
same,Tumor uptake (normalized) (ranking),[6],3
same,Tumor:Blood (ranking),[6],2
same,"tumor boron uptake, normalized",EMT-6 tumors [7],38
